Peptide text beside a SMILES is read from it. * marks the point of attachment. Bz = O=C(c1ccccc1)*
Experiments:
Guinea pig serum ACE = target: T1, Guinea pig serum ACE (Cavia porcellus, UniProt H0UWL7); experiment: Kinetics of sulfate-stimulated HipHisLeu hydrolysis (Example 4); format: biochemical; settings: for V (reaction velocity): pH 8.0, 0.1 M NaCl, 37° C., 10 minutes; for V (reaction velocity) / 1/V: 0.75 M Na2 SO4; for 1/V: 0.1 M NaCl
T1 sequence (H0UWL7 33-1234): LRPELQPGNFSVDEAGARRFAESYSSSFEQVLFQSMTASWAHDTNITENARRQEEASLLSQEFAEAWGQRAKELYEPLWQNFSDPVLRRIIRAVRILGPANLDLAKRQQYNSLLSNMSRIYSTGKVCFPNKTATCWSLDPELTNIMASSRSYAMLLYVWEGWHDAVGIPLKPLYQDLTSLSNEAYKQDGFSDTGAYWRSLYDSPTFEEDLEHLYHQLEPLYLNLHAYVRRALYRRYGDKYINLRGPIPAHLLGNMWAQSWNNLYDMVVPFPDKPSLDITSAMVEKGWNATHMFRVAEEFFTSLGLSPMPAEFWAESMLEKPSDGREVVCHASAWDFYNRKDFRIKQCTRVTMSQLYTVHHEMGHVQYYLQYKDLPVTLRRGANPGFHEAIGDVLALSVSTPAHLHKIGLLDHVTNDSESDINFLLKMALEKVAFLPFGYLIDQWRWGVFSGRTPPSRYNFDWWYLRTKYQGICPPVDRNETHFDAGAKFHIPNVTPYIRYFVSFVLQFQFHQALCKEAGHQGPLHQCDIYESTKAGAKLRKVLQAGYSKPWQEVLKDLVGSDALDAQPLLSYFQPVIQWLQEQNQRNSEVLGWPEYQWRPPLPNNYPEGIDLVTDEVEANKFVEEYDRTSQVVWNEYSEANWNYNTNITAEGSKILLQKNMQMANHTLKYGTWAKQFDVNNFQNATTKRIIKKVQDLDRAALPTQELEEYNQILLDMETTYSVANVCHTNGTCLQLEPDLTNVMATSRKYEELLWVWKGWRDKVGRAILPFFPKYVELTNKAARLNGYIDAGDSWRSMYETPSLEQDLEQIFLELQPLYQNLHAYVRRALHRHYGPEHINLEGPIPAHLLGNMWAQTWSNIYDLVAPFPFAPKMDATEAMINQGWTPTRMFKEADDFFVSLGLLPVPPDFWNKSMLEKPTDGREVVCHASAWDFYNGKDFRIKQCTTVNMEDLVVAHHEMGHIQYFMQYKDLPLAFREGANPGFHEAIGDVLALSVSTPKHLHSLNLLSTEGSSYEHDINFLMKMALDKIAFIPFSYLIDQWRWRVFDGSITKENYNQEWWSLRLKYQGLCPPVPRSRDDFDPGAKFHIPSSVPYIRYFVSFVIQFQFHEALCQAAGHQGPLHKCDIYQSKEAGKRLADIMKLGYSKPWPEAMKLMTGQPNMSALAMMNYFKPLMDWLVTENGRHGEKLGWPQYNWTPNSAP
Method: In each assay, 50 μl of Guinea pig serum diluted 1-20 (v/v) in the reaction buffer was mixed with 50 μl of buffer containing sufficient ^3 H-HipHisLeu to provide approximately 100,000 cpm total, together with sufficient unlabeled HipHisLeu to produce the desired substrate concentrations, as indicated in Table 2. […] The reaction mixture was then extracted with 1 ml ethyl acetate. 500 μl of the ethyl acetate fraction was sampled and counted in a scintillation counter.

ACE from rabbit lung = settings: removal of sodium chloride from the reaction medium; cited from earlier work
ACE = experiment: Response of 3H-benzoylPheAlaPro hydrolysis to ions; format: biochemical
Method: An even more sensitive assay for ACE activity has been developed using the novel compound ^3 H-benzoylPheAlaPro as substrate. This new substrate can be used to assay ACE in human urine in incubations as short as 15 minutes. The response of this substrate to ions is strikingly different from the response of HipHisLeu. […] This difficulty has been solved by the proper choice of extracting solvent. While a variety of organic solvents may be suitable for the extraction step, it is preferred to employ toluene. Approximately 88% of ^3 H-benzoylPhe enters the toluene phase while only 6% of the unhydrolyzed substrate enters the toluene phase, when toluene and the acidified reaction mixtures are in approximately equal volumes at room temperature.
The enzyme is active over a broad pH range with a maximum around pH 8.0, but is at least about 50% active in the range pH 7.0-pH 8.8, for both HipHisLeu and benzoylPheAlaPro. Although the enzyme is active in a variety of buffer systems known in the art, it is preferred for convenience, when using benzoylPheAlaPro as substrate, to conduct the assays in 0.05 M Hepes buffer, pH 8.0 containing 0.15 M sodium chloride. Detailed protocols for carrying out the assay are given in the examples. […] The preferred concentration range is 1×10^-9 M to 7×10^-5 M.

Structure (SMILES)	Km (Guinea pig serum ACE; 0.05 M Hepes, pH 8.0, 0.1 M NaCl and 0.75 M Na2 SO4, Lineweaver and Burke plot, read-out: apparent Km) [µM]	V (reaction velocity) (Guinea pig serum ACE; HipHisLeu concentration 0.01 mM, 0.05 M Hepes) [nmol/min/mL]	1/V (Guinea pig serum ACE; HipHisLeu concentration 0.01 mM) [mL·min/nmol]	V (reaction velocity) (Guinea pig serum ACE; HipHisLeu concentration 0.02 mM, 0.05 M Hepes) [nmol/min/mL]	1/V (Guinea pig serum ACE; HipHisLeu concentration 0.02 mM) [mL·min/nmol]	V (reaction velocity) (Guinea pig serum ACE; HipHisLeu concentration 0.03 mM, 0.05 M Hepes) [nmol/min/mL]	1/V (Guinea pig serum ACE; HipHisLeu concentration 0.03 mM) [mL·min/nmol]	V (reaction velocity) (Guinea pig serum ACE; HipHisLeu concentration 0.04 mM, 0.05 M Hepes) [nmol/min/mL]	1/V (Guinea pig serum ACE; HipHisLeu concentration 0.04 mM) [mL·min/nmol]	V (reaction velocity) (Guinea pig serum ACE; HipHisLeu concentration 0.05 mM, 0.05 M Hepes) [nmol/min/mL]	1/V (Guinea pig serum ACE; HipHisLeu concentration 0.05 mM) [mL·min/nmol]	V (reaction velocity) (Guinea pig serum ACE; HipHisLeu concentration 0.06 mM, 0.05 M Hepes) [nmol/min/mL]	1/V (Guinea pig serum ACE; HipHisLeu concentration 0.06 mM) [mL·min/nmol]	V (reaction velocity) (Guinea pig serum ACE; HipHisLeu concentration 0.07 mM, 0.05 M Hepes) [nmol/min/mL]	1/V (Guinea pig serum ACE; HipHisLeu concentration 0.07 mM) [mL·min/nmol]	V (reaction velocity) (Guinea pig serum ACE; HipHisLeu concentration 0.08 mM, 0.05 M Hepes) [nmol/min/mL]	1/V (Guinea pig serum ACE; HipHisLeu concentration 0.08 mM) [mL·min/nmol]	inhibition of hydrolysis (ACE from rabbit lung) [%]	effect of sodium sulfate on hydrolysis (ACE; 3H-benzoylPheAlaPro as substrate)	increase of apparent reaction velocity by added sodium chloride (ACE; added sodium chloride at 0.05 M, 0.05 M Hepes buffer at pH 8.0)
CC(C)C[C@H](NC(=O)[C@H](Cc1c[nH]cn1)NC(=O)CNC(=O)c1ccccc1)C(=O)O [HipHisLeu] (Bz-Gly-His-Leu-OH)	177	0.30	3.33	0.52	1.92	0.74	1.35	1.28	0.78	1.14	0.88	1.28	0.78	2.14	0.47	1.76	0.57	92		
C[C@H](NC(=O)[C@H](Cc1ccccc1)NC(=O)c1ccccc1)C(=O)N1CCC[C@H]1C(=O)O [benzoylPheAlaPro, benzoyl-Phe-Ala-Pro] (Bz-Phe-Ala-Pro-OH)																			not stimulatory	approximately 3 fold
